Activity calls are given as the source filed them. The calls are words filed in the database; no cut-off is given here.
Columns and labels:
Calf thymus DNA [1] = assay: Binding affinity to calf thymus DNA in citric acid buffer at pH 5 by UV-v titration assay; format: nucleic-acid assay; conditions: Bos taurus
HT-29 [2] = assay: Cytotoxicity against human HT-29 cells at 0.1 to 100 uM after 72 hrs by MTT assay; format: functional, cell-based
Nucleic Acid [3] = assay: Binding affinity to poly A-poly U RNA assessed as change in melting temperature at compound to DNA molar ratio of 0.2 at pH 5 by thermal denaturation assay; format: nucleic-acid assay
Nucleic Acid [4] = assay: Binding affinity to UMP in sodium cacodylate buffer at pH 7 by fluorescence titration assay relative to control; format: nucleic-acid assay
Nucleic Acid [5] = assay: Binding affinity to poly G-poly C RNA in sodium cacodylate buffer at pH 7 by fluorescence titration assay; format: nucleic-acid assay
Calf thymus DNA [6] = assay: Binding affinity to calf thymus DNA assessed as melting temperature at compound to DNA molar ratio of 0.3 at pH 5 by thermal denaturation assay; format: nucleic-acid assay; conditions: Bos taurus
Nucleic Acid [7] = assay: Binding affinity to poly A-poly U RNA assessed as melting temperature at compound to DNA molar ratio of 0.3 at pH 5 by thermal denaturation assay; format: nucleic-acid assay
Nucleic Acid [8] = assay: Binding affinity to poly A-poly U RNA assessed as change in melting temperature at compound to DNA molar ratio of 0.3 at pH 7 by thermal denaturation assay; format: nucleic-acid assay
Nucleic Acid [9] = assay: Binding affinity to […] assessed as change in melting temperature at compound to DNA molar ratio of 0.3 at pH 7 by thermal denaturation assay; format: nucleic-acid assay
Nucleic Acid [10] = assay: Binding affinity to […] assessed as change in melting temperature at compound to DNA molar ratio of 0.2 at pH 5 by thermal denaturation assay; format: nucleic-acid assay
Nucleic Acid [11] = assay: Binding affinity to poly A-poly U RNA in citric acid buffer at pH 5 by fluorescence titration assay; format: nucleic-acid assay
Nucleic Acid [12] = assay: Binding affinity to poly G-poly C RNA in sodium cacodylate buffer at pH 7 by UV-v titration assay; format: nucleic-acid assay
Nucleic Acid [13] = assay: Binding affinity to poly A-poly U RNA in sodium cacodylate buffer at pH 7 by fluorescence titration assay; format: nucleic-acid assay
Nucleic Acid [14] = assay: Binding affinity to poly A-poly U RNA at compound to DNA molar ratio of 0.1 to 0.5 at pH 7 by circular dichroism; format: nucleic-acid assay
Nucleic Acid [15] = assay: Binding affinity to UMP in citric acid buffer at pH 5 by fluorescence titration assay relative to control; format: nucleic-acid assay
Nucleic Acid [16] = assay: Binding affinity to poly A-poly U RNA assessed as change in melting temperature at compound to DNA molar ratio of 0.3 at pH 5 by thermal denaturation assay; format: nucleic-acid assay
Nucleic Acid [17] = assay: Binding affinity to […] in citric acid buffer at pH 5 by UV-v titration assay; format: nucleic-acid assay
[18] = Solubility of the compound in water; format: physicochemical; conditions: buffer
Nucleic Acid [19] = assay: Binding affinity to poly A-poly U RNA assessed as biphasic transitions of melting temperature at compound to DNA molar ratio of 0.3 at pH 5 by thermal denaturation assay; format: nucleic-acid assay
HeLa [20] = assay: Cytotoxicity against human HeLa cells at 0.1 to 100 uM after 72 hrs by MTT assay; format: functional, cell-based
Nucleic Acid [21] = assay: Binding affinity to poly A-poly U RNA assessed as biphasic transitions of change in melting temperature at compound to DNA molar ratio of 0.2 at pH 5 by thermal denaturation assay; format: nucleic-acid assay
Nucleic Acid [22] = assay: Binding affinity to poly A-poly U RNA assessed as biphasic transitions of change in melting temperature at compound to DNA molar ratio of 0.3 at pH 5 by thermal denaturation assay; format: nucleic-acid assay
Calf thymus DNA [23] = assay: Binding affinity to calf thymus DNA in citric acid buffer at pH 5 by fluorescence titration assay relative to control; format: nucleic-acid assay; conditions: Bos taurus
Nucleic Acid [24] = assay: Binding affinity to poly A-poly U RNA at compound to DNA molar ratio of 0.1 to 0.4 at pH 5 by circular dichroism; format: nucleic-acid assay
Caco-2 = assay: Cytotoxicity against human Caco-2 cells at 10 to 100 uM after 72 hrs by MTT assay; format: functional, cell-based
HEp-2 = assay: Cytotoxicity against human Hep2 cells at 10 to 100 uM after 72 hrs by MTT assay; format: functional, cell-based
HeLa [25] = assay: Drug uptake in human HeLa cells at 1 mM after 10 mins using DAPI staining by fluorescence microscopy analysis; format: ADME, cell-based; conditions: 1000 µM
MIA PaCa-2 [26] = assay: Cytotoxicity against human MIAPaCa2 cells at 10 to 100 uM after 72 hrs by MTT assay; format: functional, cell-based
Nucleic Acid [27] = assay: Binding affinity to poly G-poly C RNA in citric acid buffer at pH 5 by UV-v titration assay; format: nucleic-acid assay
MIA PaCa-2 [28] = assay: Drug uptake in human MIAPaCa2 cells at 1 mM after 10 mins using DAPI staining by fluorescence microscopy analysis; format: ADME, cell-based; conditions: mia paca-2, 10 min, 1000 µM
Nucleic Acid [29] = assay: Binding affinity to poly A-poly U RNA in citric acid buffer at pH 5 by UV-v titration assay; format: nucleic-acid assay
HT-29 [30] = assay: Cytotoxicity against human HT-29 cells at 10 to 100 uM after 72 hrs by MTT assay; format: functional, cell-based
HeLa [31] = assay: Cytotoxicity against human HeLa cells at 10 to 100 uM after 72 hrs by MTT assay; format: functional, cell-based
Calf thymus DNA [32] = assay: Binding affinity to calf thymus DNA at compound to DNA molar ratio of 0.1 to 0.5 at pH 7 by circular dichroism; format: nucleic-acid assay; conditions: Bos taurus
Nucleic Acid [33] = assay: Binding affinity to poly A-poly U RNA in sodium cacodylate buffer at pH 7 by UV-v titration assay; format: nucleic-acid assay

log Ks (Calf thymus DNA [1]) | ΔTm (Nucleic Acid [3]) [°C] | RFU (Nucleic Acid [4]) | log Ks (Nucleic Acid [5]) | Tm (Calf thymus DNA [6]) [°C] | Tm (Nucleic Acid [7]) [°C] | ΔTm (Nucleic Acid [8]) [°C] | ΔTm (Nucleic Acid [9]) [°C] | ΔTm (Nucleic Acid [10]) [°C] | log Ks (Nucleic Acid [11]) | log Ks (Nucleic Acid [12]) | log Ks (Nucleic Acid [13]) | Activity (Nucleic Acid [14]) | RFU (Nucleic Acid [15]) | ΔTm (Nucleic Acid [16]) [°C] | solubility [18] [µM] | ΔTm (Nucleic Acid [21]) [°C] | RFU (Calf thymus DNA [23]) | SMILES | Activity (HT-29 [2]) | Activity (HeLa [20]) | also measured
6 | 1.5 | 62.5 | 5.4 | 75.6 | 83.8 | 0 | 6.1 | 9.4 | 6.6 | 5.2 | 5.3 | Active | -13.5 | 1.9 | 1460 | -0.1 | 2.6 | Cc1c2cc(NC(=O)NCCNC(=O)Nc3ccc4c(c3)c(C)[n+](C)c3ccccc43)ccc2c2ccccc2[n+]1C.O=S(=O)([O-])O.O=S(=O)([O-])O | Active | Active | log Ks (Nucleic Acid [17]): 5.2; Tm (Nucleic Acid [19]): 31.1 °C; ΔTm (Nucleic Acid [22]): -0.4 °C; Activity (Nucleic Acid [24]): Active
5.4 | 2.2 | 3.5 | 6.2 | 76.3 |  | 0 | 6.4 | 9.7 | 5.6 |  | 5.4 | Active | -11.5 |  | 1240 | -1.2 | 2.7 | Cc1c2cc(NC(=O)NCCCCCCNC(=O)Nc3ccc4c(c3)c(C)[n+](C)c3ccccc43)ccc2c2ccccc2[n+]1C.O=S(=O)([O-])O.O=S(=O)([O-])O | Active | Active | Activity (Caco-2): inactive; Activity (HEp-2): inactive; Drug uptake (HeLa [25]): Active; Activity (MIA PaCa-2 [26]): inactive; log Ks (Nucleic Acid [27]): 5.1; Drug uptake (MIA PaCa-2 [28]): Active; log Ks (Nucleic Acid [29]): 4.5; Activity (HT-29 [30]): inactive; Activity (Nucleic Acid [24]): Active; Activity (HeLa [31]): inactive
 | 1.8 | 1.02 | 5.4 | 74 | 82.6 | 2.1 | 5.5 | 7.5 | 5.4 | 5.8 | 5.8 | Active | -15.8 | 1.9 | 1060 | -1.3 | 0.3 | Cc1c2cc(NC(=O)NCCCCCCCCCNC(=O)Nc3ccc4c(c3)c(C)[n+](C)c3ccccc43)ccc2c2ccccc2[n+]1C.O=S(=O)([O-])O.O=S(=O)([O-])O | inactive | inactive | Activity (Calf thymus DNA [32]): Active; log Ks (Nucleic Acid [29]): 5.4; Tm (Nucleic Acid [19]): 31.1 °C; ΔTm (Nucleic Acid [22]): -1.6 °C; log Ks (Nucleic Acid [33]): 5.1

From ChEMBL document CHEMBL1208667, “Permanent positive charge strongly influences DNA/RNA binding and antiproliferative activity of urea-phenanthridinium conjugates” (Eur J Med Chem, 2010)
